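1) Cells in 96-well plates. 2) Compound, 48 h, 5 concentrations. 3) Linear interpolation between surrounding doses. 4) Unreached endpoint = highest concentration. GI50 marks 50% less growth. Definition used: TGI = concentration required for complete inhibition of growth.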
What was measured:
Test in all cases: DTP human tumour cell line panel, 48 h
MOLT-4 leukemia = system: MOLT-4 leukemia
A498 renal = system: A498 renal
MALME-3M melanoma = system: MALME-3M melanoma
HCT-15 colon = system: HCT-15 colon
M14 melanoma = system: M14 melanoma
HCT-116 colon = system: HCT-116 colon
UACC-62 melanoma = system: UACC-62 melanoma
SNB-19 CNS = system: SNB-19 CNS
RXF 393 renal = system: RXF 393 renal
BT-549 breast = system: BT-549 breast
HCC-2998 colon = system: HCC-2998 colon
DU-145 prostate = system: DU-145 prostate
OVCAR-3 ovarian = system: OVCAR-3 ovarian
CAKI-1 renal = system: CAKI-1 renal
OVCAR-4 ovarian = system: OVCAR-4 ovarian
EKVX NSCLC = system: EKVX NSCLC
TK-10 renal = system: TK-10 renal
HT29 colon = system: HT29 colon
UO-31 renal = system: UO-31 renal
K-562 leukemia = system: K-562 leukemia
SK-MEL-5 melanoma = system: SK-MEL-5 melanoma
PC-3 prostate = system: PC-3 prostate
SK-MEL-2 melanoma = system: SK-MEL-2 melanoma
ACHN renal = system: ACHN renal
A549 NSCLC = system: A549 NSCLC
COLO 205 colon = system: COLO 205 colon
SK-MEL-28 melanoma = system: SK-MEL-28 melanoma
HOP-92 NSCLC = system: HOP-92 NSCLC
NCI-H23 lung = system: NCI-H23 lung
MCF7 breast = system: MCF7 breast

O=C1c2c(c3c4cc(F)ccc4oc3c3[nH]c4ccc(Br)cc4c23)C(=O)N1O
GI50 (MOLT-4 leukemia): 0.505 µM
TGI (MOLT-4 leukemia): > 100 µM
GI50 (A498 renal): 26.6 µM
TGI (A498 renal): 70.9 µM
GI50 (MALME-3M melanoma): 2.5 µM
TGI (MALME-3M melanoma): 16.1 µM
GI50 (HCT-15 colon): 3.57 µM
TGI (HCT-15 colon): > 100 µM
GI50 (M14 melanoma): 0.542 µM
TGI (M14 melanoma): > 100 µM
GI50 (HCT-116 colon): 2.09 µM
TGI (HCT-116 colon): > 100 µM
GI50 (UACC-62 melanoma): 0.799 µM
TGI (UACC-62 melanoma): 14.6 µM
GI50 (SNB-19 CNS): 0.678 µM
TGI (SNB-19 CNS): > 79.9 µM
GI50 (RXF 393 renal): 3.76 µM
TGI (RXF 393 renal): 32.8 µM
GI50 (BT-549 breast): 1.84 µM
TGI (BT-549 breast): > 100 µM
GI50 (HCC-2998 colon): 11.5 µM
TGI (HCC-2998 colon): > 100 µM
GI50 (DU-145 prostate): 0.735 µM
TGI (DU-145 prostate): > 100 µM
GI50 (OVCAR-3 ovarian): 45 µM
TGI (OVCAR-3 ovarian): > 100 µM
GI50 (CAKI-1 renal): 1.34 µM
TGI (CAKI-1 renal): > 100 µM
GI50 (OVCAR-4 ovarian): > 100 µM
TGI (OVCAR-4 ovarian): > 100 µM
GI50 (EKVX NSCLC): 25.8 µM
TGI (EKVX NSCLC): > 100 µM
GI50 (TK-10 renal): 24.9 µM
TGI (TK-10 renal): 72.5 µM
GI50 (HT29 colon): 6.86 µM
TGI (HT29 colon): > 100 µM
GI50 (UO-31 renal): 0.439 µM
TGI (UO-31 renal): > 100 µM
TGI (K-562 leukemia): > 100 µM
GI50 (SK-MEL-5 melanoma): 1.42 µM
TGI (SK-MEL-5 melanoma): 15 µM
GI50 (PC-3 prostate): 0.926 µM
TGI (PC-3 prostate): > 100 µM
GI50 (SK-MEL-2 melanoma): 18.6 µM
TGI (SK-MEL-2 melanoma): 45.4 µM
GI50 (ACHN renal): 0.372 µM
TGI (ACHN renal): 13.3 µM
GI50 (A549 NSCLC): > 52.1 µM
TGI (A549 NSCLC): > 100 µM
GI50 (COLO 205 colon): > 33 µM
TGI (COLO 205 colon): > 100 µM
GI50 (SK-MEL-28 melanoma): 5.84 µM
TGI (SK-MEL-28 melanoma): > 100 µM
GI50 (HOP-92 NSCLC): 2.35 µM
TGI (HOP-92 NSCLC): 13.2 µM
GI50 (NCI-H23 lung): 0.471 µM
TGI (NCI-H23 lung): 11.7 µM
GI50 (MCF7 breast): 0.488 µM
TGI (MCF7 breast): > 100 µM

— PubChem BioAssay (NCI)
